These results are taken from PMC4757070, “Involvement of a Novel Class C Beta-Lactamase in the Transglutaminase Mediated Cross-Linking Cascade of Streptomyces mobaraensis DSM 40847” (PLoS ONE, 2016).

pKi: −log10 of the molar value. Where two headings read alike, the source gives them in different places.

One may read the pKi as −log10 of the Ki, conventionally taken in molar units. A low value points to a high Ki.

Assay [1] deals with T1, beta-lactamase Sml-1 (rSml-1).
T1 construct: recombinant Sml-1 produced in E. coli BL21(DE3) RIL with pelB leader and C-terminal Gly-Leu-Glu-(His)6
Briefly: inhibition of nitrocefin hydrolysis at […] nm; Ki from IC50 ([…]) by Cheng-Prusoff. The class given is biochemical.

Assay [2] shares this target. Described as above. The class given is biochemical, Streptomyces mobaraensis.

As for `CC1(C)S[C@@H]2[C@H](NC(=O)[C@H](N)c3ccccc3)C(=O)N2[C@H]1C(=O)O` [ampicillin], in assay [1], the pKi was 3.74.

Compound `CC1(C)S[C@@H]2[C@H](NC(=O)Cc3ccccc3)C(=O)N2[C@H]1C(=O)O` [penicillin G] showed a pKi in assay [2] of 4.00.
